Measurements reported in patent US7781593B2, “5-phenyl-nicotinamide derivatives” (Hoffmann-La Roche Inc., priority 2006, dated 2010).
pKi: −log10 of the molar value.

Columns and labels:
[1] = target: T1, human cannabis CB1 receptor (Homo sapiens, UniProt P21554); experiment: Affinity for cannabinoid CB1 receptors, [3H]-CP-55,940 radioligand binding on HEK cell membranes
T1 construct: expressed in transfected cells; host or cells: human embryonic kidney (HEK) cells, Semliki Forest Virus system, membrane preparation
Experimental: The affinity of the compounds of the invention for cannabinoid CB1 receptors was determined using membrane preparations of human embryonic kidney (HEK) cells in which the human cannabis CB1 receptor is transiently transfected using the Semliki Forest Virus system in conjunction with [3H]-CP-55,940 as radioligand. After incubation of a freshly prepared cell membrane preparation with the [3H]-ligand, with or without addition of compounds of the invention, separation of bound and free ligand was performed by filtration over glassfiber filters. Radioactivity on the filter was measured by liquid scintillation counting.
The compounds of formula (I) show an excellent affinity for the CB1 receptor, determined with the experimental conditions described in Devane et al. Mol. Pharmacol. 34 (1988) 605-613.

[2] = doses of 10 and 20 mg daily; cited from earlier work
[3] = wild-type versus CB1 receptor knockout mice; cited from earlier work

T1 sequence (P21554 whole entry): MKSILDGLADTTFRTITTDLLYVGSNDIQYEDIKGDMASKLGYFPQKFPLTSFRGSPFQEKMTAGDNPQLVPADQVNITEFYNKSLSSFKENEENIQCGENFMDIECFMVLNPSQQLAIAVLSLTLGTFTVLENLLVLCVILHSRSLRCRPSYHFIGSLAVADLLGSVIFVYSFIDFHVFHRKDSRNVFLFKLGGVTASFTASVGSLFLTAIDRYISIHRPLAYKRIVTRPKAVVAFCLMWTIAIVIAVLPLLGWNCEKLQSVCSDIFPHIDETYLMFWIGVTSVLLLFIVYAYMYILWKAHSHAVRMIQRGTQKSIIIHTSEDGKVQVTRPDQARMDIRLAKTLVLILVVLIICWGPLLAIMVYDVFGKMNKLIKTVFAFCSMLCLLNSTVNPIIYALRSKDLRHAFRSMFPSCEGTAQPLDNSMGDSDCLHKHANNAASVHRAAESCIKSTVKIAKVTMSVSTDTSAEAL

Row | pKi [1] | SMILES | body weight compared to placebo [2] | food intake [3]
1 | 7.59 | O=C(N[C@@H]1CCCC[C@H]1O)c1cnc(CCC2CC2)c(-c2ccc(Cl)cc2)c1 [Example 2, 5-(4-Chloro-phenyl)-6-(2-cyclopropyl-ethyl)-N-((1R,2R)-2-hydroxy-cyclohexyl)-nicotinamide] |  | 
2 | 7.22 | O=C(N[C@@H]1CCCC[C@H]1O)c1cnc(CCc2cncnc2)c(-c2ccc(C(F)(F)F)cc2)c1 [Example 3, N-((1R,2R)-2-Hydroxy-cyclohexyl)-6-(2-pyrimidin-5-yl-ethyl)-5-(4-trifluoromethyl-phenyl)-nicotinamide] |  | 
3 | 7.96 | O=C(N[C@@H]1CCCC[C@H]1O)c1cnc(CCc2cccnc2)c(-c2ccc(Cl)cc2)c1 [Example 7, 5-(4-Chloro-phenyl)-N-((1R,2R)-2-hydroxy-cyclohexyl)-6-(2-pyridin-3-yl-ethyl)-nicotinamide] |  | 
4 |  | Cc1c(C(=O)NN2CCCCC2)nn(-c2ccc(Cl)cc2Cl)c1-c1ccc(Cl)cc1 [SR 141716] | significantly reduced body weight | reduces food intake in wild-type but not knockout mice
